Experimental data published in patent US20220204509A1, “PYRIMIDO FIVE-MEMBERED HETEROCYCLIC COMPOUND AND USE THEREOF AS MUTANT IDH2 INHIBITOR” (EPITAS BIOSCIENCES (SHANGHAI) CO., LTD., priority 2019, published 2022).

Tests used:
[1] = target: T1, IDH2/R140Q (Homo sapiens, UniProt P48735, R140Q); test: Inhibition of mutant IDH2 activity at the cell level (extracellular 2-HG, U87MG overexpressing IDH2/R140Q); format: cell-based
T1 sequence (P48735 40-452 R140Q): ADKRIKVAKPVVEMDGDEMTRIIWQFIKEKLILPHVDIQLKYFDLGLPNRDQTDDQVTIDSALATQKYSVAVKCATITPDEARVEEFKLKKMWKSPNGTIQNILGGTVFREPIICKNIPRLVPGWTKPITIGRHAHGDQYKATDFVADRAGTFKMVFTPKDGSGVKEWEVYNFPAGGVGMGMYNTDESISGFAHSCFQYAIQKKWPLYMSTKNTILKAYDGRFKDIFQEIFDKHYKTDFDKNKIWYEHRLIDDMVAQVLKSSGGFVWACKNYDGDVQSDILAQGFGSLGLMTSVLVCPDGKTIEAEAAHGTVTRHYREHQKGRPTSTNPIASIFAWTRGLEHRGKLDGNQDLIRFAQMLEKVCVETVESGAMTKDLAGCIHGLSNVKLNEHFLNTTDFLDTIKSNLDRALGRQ
Procedure: 2-hydroxyglutarate dehydrogenase (2HGDH) can reduce NAD+ to NADH in the presence of 2-HG. The latter can be quantitatively detected by diaphorase and its substrate Resazurin.
The glioma cells U87MG overexpressing IDH2/R140Q mutation were cultured in 1% sodium pyruvate high-sugar MEM, 10% FBS, and placed in a CO2 incubator (37° C., 5% CO2, 95% air) for cultivation.
The cells were digested with trypsin and seeded in a 96-well plate at a density of 1×10^4 with a medium of 200 μL and cultured in a 37° C. incubator overnight. The next day, the test compound was added to a final concentration of 0.1% for DMSO. […] The protein and other components in the medium that may interfere with the results were filtered, and the follow-up method was used to detect the content of 2-HG. 50 uL CellTiter-Glo (purchased from Promega) was added to the 96-well plate with the remaining 100 μL of medium to detect cell survival;
Extracellular 2-HG detecting system:
(1) 50 μL reaction system: reaction buffer (50 mM Tris pH7.5, 100 mM NaCl, 20 mM MgCl2, 0.05% BSA), in which the final concentration of NAD+ was 40 μM, the final concentration of 2HGDH was 20 nM, and the test sample was added to 5 μL of medium; the reaction solution was mixed and centrifuged, and the reaction was carried out for 1 hour at 25° C. in the dark;
Preparation of 2-HG standard curve: a 2-HG stock solution was diluted to 20 μM with reaction buffer, and a 2-fold gradient diluting was performed for a total of 6 points. Afterwards, the above-mentioned 2-HG was measured according to the extracellular 2-HG detecting system, and a standard curve was calculated and drawn.
Calculation of extracellular 2-HG content:
The fluorescence value obtained in the extracellular 2-HG detecting system was calculated using the 2-HG standard curve to calculate the content of 2-HG in the medium, and DMSO was used as a negative control to calculate the compound's inhibition against IDH2/R140Q mutation producing 2-HG activity.

[2] = target: T1, IDH2/R140Q; test: Determination of the inhibitory activity of the compounds on IDH2/R140Q (NADPH reduction, resazurin/lipoamide dehydrogenase detection); format: biochemical; parameters: purchased Abcam ab198153
Procedure: In this example, the inhibitory activity of a compound on IDH2/R140Q was determined by measuring the reduction of the cofactor NADPH. The compound was incubated with IDH2/R140Q and NADPH, and then the reaction was initiated by adding α-KG. After a certain time of reaction under linear conditions, lipoamide dehydrogenase and the corresponding substrate resazurin were added for detection. Lipoamide dehydrogenase terminated the IDH2/R140Q reaction bγ subtracting the available cofactor NADPH. It oxidized NADPH to NADP, and reduced resazurin to highly fluorescent resorufin. The production of resorufin was detected to quantify the amount of cofactor NADPH remaining after a specific reaction time.
Then 25 μL of a stop mixed solution (lipoamide dehydrogenase 36 μg/mL, resazurin 30 μM) prepared with the above reaction buffer was added to convert resazurin to resorufin to measure the remaining NADPH. After 10 minutes of incubation at 25° C., the fluorescence value was measured by Tecan […] […] The enzyme activity was measured at 10 concentrations for each compound, and multiple background holes without enzyme and full enzyme activity holes without compound were set up in the reaction. The concentration of dimethyl sulfoxide in the system was less than or equal to 2%. […] The multi-well plate in this example was purchased from Thermo Fisher Scientific, NADPH, α-KG, lipoamide dehydrogenase, and resazurin were purchased from Shenggong Bioengineering Co., Ltd., and IDH2/R140Q was purchased from Abcam (ab198153).

[3] = IDH2/R140Q inhibitory activity, cells marked (1 h), read-out: IC50
[4] = U87MG overexpressing IDH2/R140Q, 2-HG in medium after 24 hours of culturing with compound, read-out: IC50
[5] = IDH2/R140Q inhibitory activity, pre-incubated at 25° C. for 16 hours, read-out: IC50

Row | IC50 [2, 3] [µM] | IC50 [1, 4] [µM] | IC50 [2, 5] [µM] | Compound | also measured
1 |  |  |  | CC(C)(O)CNc1nc(Nc2ccnc(C(F)(F)F)c2)nc(-c2cccc(C(F)(F)F)n2)n1 [AG-221, Enasidenib, reference compound] | IC50 [1]: < 0.1 µM; IC50 [2]: < 0.1 µM
2 | > 10 |  |  | CC(C)n1cnc2c(Nc3ccccc3)nc(-c3ccccc3)nc21 [Compound 1, 9-isopropyl-N,2-diphenyl-9H-purin-6-amine] | 
3 | > 10 |  |  | COc1ccccc1Nc1nc(-c2ccccc2)nc2c1ncn2C(C)C [Compound 2, 9-isopropyl-N-(2-methoxyphenyl)-2-phenyl-9H-purin-6-amine] | 
4 | > 10 | > 10 |  | CC(C)n1cnc2c(Nc3ccnc(C(F)(F)F)c3)nc(-c3ccccc3)nc21 [Compound 3, 9-isopropyl-2-phenyl-N-(2-(trifluoromethyl)pyridin-4-yl)-9H-purin-6-amine] | 
5 | > 10 | > 10 |  | CC(C)n1cnc2c(Nc3ccnc(C(F)(F)F)c3)nc(-c3cccc(C(F)(F)F)n3)nc21 [Compound 4, 9-isopropyl-2-(6-(trifluoromethyl)pyridin-2-yl)-N-(2-(trifluoromethyl)pyridin-4-yl)-9H-purine-6-amine] | 
6 | > 10 | > 10 |  | CC(C)n1cnc2c(Nc3ccnc(C(F)(F)F)c3)nc(-c3cccnc3)nc21 [Compound 5, 9-isopropyl-2-(pyridin-3-yl)-N-(2-(trifluoromethyl)pyridin-4-yl)-9H-purin-6-amine] | 
7 | > 10 | > 10 |  | c1ccc(Nc2nc(-c3ccccc3)nc3[nH]cnc23)cc1 [Compound 6, N,2-diphenyl-9H-purin-6-amine] | 
8 |  | 1 to 10 | 1 to 10 | Cc1cc2c(-c3ccccc3)nc(Nc3ccccc3)nc2[nH]1 [Compound 7, 6-methyl-N,4-diphenyl-7H-pyrrolo[2,3-d]pyrimidin-2-amine] | 
9 |  | 1 to 10 | 0.1 to 1 | Cc1cc2c(Nc3ccccc3)nc(-c3ccccc3)nc2[nH]1 [Compound 8, 6-methyl-N,2-diphenyl-7H-pyrrolo[2,3-d]pyrimidin-4-amine] | 
10 | > 10 | > 10 |  | CC(C)n1cnc2c(Nc3ccnc(C(F)(F)F)c3)nc(-c3ccncc3)nc21 [Compound 9, 9-isopropyl-2-(pyridin-4-yl)-N-(2-(trifluoromethyl)pyridin-4-yl)-9H-purin-6-amine] | 
11 | > 10 | > 10 |  | CC(C)n1cnc2c(Nc3ccnc(C(F)(F)F)c3)nc(-c3ccccn3)nc21 [Compound 10, 9-isopropyl-2-(pyridin-2-yl)-N-(2-(trifluoromethyl)pyridin-4-yl)-9H-purin-6-amine] | 
12 | > 10 |  |  | Cn1ccc2c(Nc3ccccc3)nc(-c3ccccc3)nc21 [Compound 11, 7-methyl-N,2-diphenyl-7H-pyrrolo[2,3-d]pyrimidin-4-amine] | 
13 | > 10 | > 10 |  | CC(C)n1cnc2c(-c3ccccc3)nc(Nc3ccccc3)nc21 [Compound 12, 9-isopropyl-N,6-diphenyl-9H-purin-2-amine] | 
14 |  | 0.1 to 1 | 0.1 to 1 | Cc1cc2c(NC(C)C)nc(-c3ccccc3)nc2[nH]1 [Compound 13, N-isopropyl-6-methyl-2-phenyl-7H-pyrrolo[2,3-d]pyrimidin-4-amine] | 
15 | > 10 | > 10 |  | Cc1nc2c(Nc3ccccc3)nc(-c3ccccc3)nc2[nH]1 [Compound 14, 8-methyl-N,2-diphenyl-9H-purin-6-amine] | 
16 |  |  | > 10 | Cc1cc2c(NC3CC3)nc(-c3ccc4ccccc4c3)nc2[nH]1 [Compound 15, N-cyclopropyl-6-methyl-2-(naphthalene-2-yl)-7H-pyrrolo[2,3-d]pyrimidin-4-amine] | 

Row | IC50 [2, 3] [µM] | IC50 [1, 4] [µM] | IC50 [2, 5] [µM] | Compound | also measured
17 |  | 1 to 10 | > 10 | Cc1cc2c(NC(C)C)nc(-c3ccccn3)nc2[nH]1 [Compound 16, N-isopropyl-6-methyl-2-(pyridin-2-yl)-7H-pyrrolo[2,3-d]pyrimidin-4-amine] | 
18 |  | > 10 | > 10 | Cc1cc2c(NC(C)C)nc(-c3cccnc3)nc2[nH]1 [Compound 17, N-isopropyl-6-methyl-2-(pyridin-3-yl)-7H-pyrrolo[2,3-d]pyrimidin-4-amine] | 
19 |  | > 10 | > 10 | Cc1cc2c(NC(C)C)nc(-c3ccncc3)nc2[nH]1 [Compound 18, N-isopropyl-6-methyl-2-(pyridin-4-yl)-7H-pyrrolo[2,3-d]pyrimidin-4-amine] | 
20 |  | > 10 | > 10 | c1ccc(Nc2nc(-c3ccccc3)nc3[nH]ccc23)cc1 [Compound 19, N,2-diphenyl-7H-pyrrolo[2,3-d]pyrimidin-4-amine] | 
21 |  | 1 to 10 | 0.1 to 1 | Cc1cc2c(Nc3ccnc(C(F)(F)F)c3)nc(-c3ccccc3)nc2[nH]1 [Compound 20, 6-methyl-2-phenyl-N-(2-(trifluoromethyl)pyridin-4-yl)-7H-pyrrolo[2,3-d]pyrimidin-4-amine] | 
22 |  | 1 to 10 | > 10 | Cc1cc2c(Nc3ccnc(F)c3)nc(-c3ccccc3)nc2[nH]1 [Compound 21, N-(2-fluoropyridin-4-yl)-6-methyl-2-phenyl-7H-pyrrolo[2,3-d]pyrimidin-4-amine] | 
23 |  | 1 to 10 | > 10 | Cc1cc2c(Nc3ccccc3)nc(Nc3ccccc3)nc2[nH]1 [Compound 22, 6-methyl-N2,N4-diphenyl-7H-pyrrolo[2,3-d]pyrimidine-2,4-diamine] | 
24 |  | > 10 | > 10 | Cn1cnc2c(Nc3ccccc3)nc(-c3ccccc3)nc21 [Compound 24, 9-methyl-N,2-diphenyl-9H-purin-6-amine] | 
25 |  |  | > 10 | Cc1cc2c(-c3ccccc3)nc(-c3ccccc3)nc2[nH]1 [Compound 26, 6-methyl-2,4-diphenyl-7H-pyrrolo[2,3-d]pyrimidine] | 
26 |  |  | > 10 | Cc1cc2c(NC(C)(C)C)nc(-c3ccccc3)nc2[nH]1 [Compound 27, N-(tert-butyl)-6-methyl-2-phenyl-7H-pyrrolo[2,3-d]pyrimidin-4-amine] | 
27 |  | 1 to 10 | 1 to 10 | Cc1cc2c(NCC3CC3)nc(-c3ccccc3)nc2[nH]1 [Compound 29, N-(cyclopropylmethyl)-6-methyl-2-phenyl-7H-pyrrole[2,3-d]pyrimidin-4-amine] | 
28 |  |  | > 10 | Cc1cc2c(NCc3ccccc3)nc(-c3ccccc3)nc2[nH]1 [Compound 30, N-benzyl-6-methyl-2-phenyl-7H-pyrrolo[2,3-d]pyrimidin-4-amine] | 
29 |  |  | > 10 | CC(C)Nc1nc(-c2ccccc2)nc2[nH]ccc12 [Compound 32, N-isopropyl-2-phenyl-7H-pyrrolo[2,3-d]pyrimidin-4-amine] | 
30 |  |  | > 10 | CC(C)Nc1nc(-c2ccccc2)nc2[nH]c(Br)cc12 [Compound 33, 6-bromo-N-isopropyl-2-phenyl-7H-pyrrolo[2,3-d]pyrimidin-4-amine] | 
31 |  |  | > 10 | Cc1cc2c(NCC(C)(C)O)nc(-c3ccccc3)nc2[nH]1 [Compound 35, 2-methyl-1-((6-methyl-2-phenyl-7H-pyrrolo[2,3-d]pyrimidin-4-yl)amino)propan-2-ol] | 
